Assay results from ChEMBL document CHEMBL2169826, “Pharmacokinetic benefits of 3,4-dimethoxy substitution of a phenyl ring and design of isosteres yielding orally available cathepsin K inhibitors” (J Med Chem, 2012).
pIC50: −log10 of the molar value.

Key:
[1] = Volume of distribution at steady state in Alderley Park Han Wistar rat at 2 mg/kg, iv and 2 mg/kg, po; type: ADME, organism-based; conditions: in vivo, read-out: Vdss
[2] = Metabolic stability of the compound in rat liver microsomes assessed as compound turnover after 120 mins
[3] = Oral bioavailability in Alderley Park Han Wistar rat at 2 mg/kg; type: ADME, organism-based; conditions: in vivo
[4] = Percentage unbound in rat plasma; type: ADME, cell-free
in vivo [5] = conditions: Alderley Park Han Wistar, rat, plasma, iv, 2 mg/kg
[6] = Percentage unbound in human plasma; type: ADME, cell-free
[7] = Oral bioavailability in rat; type: ADME, organism-based; conditions: in vivo
[8] = Clearance in rat; type: ADME, organism-based; conditions: in vivo
[9] = Volume of distribution at steady state in rat; type: ADME, organism-based; conditions: in vivo, read-out: Vdss
Cathepsin K = target: T1, Cathepsin K (Homo sapiens, UniProt P43235); assay: Inhibition of human recombinant cathepsin-k using Z-Phe-Arg-AMC as substrate preincubated for 15 mins measured after 1 hr by QFRET assay
T1 sequence (P43235 whole entry): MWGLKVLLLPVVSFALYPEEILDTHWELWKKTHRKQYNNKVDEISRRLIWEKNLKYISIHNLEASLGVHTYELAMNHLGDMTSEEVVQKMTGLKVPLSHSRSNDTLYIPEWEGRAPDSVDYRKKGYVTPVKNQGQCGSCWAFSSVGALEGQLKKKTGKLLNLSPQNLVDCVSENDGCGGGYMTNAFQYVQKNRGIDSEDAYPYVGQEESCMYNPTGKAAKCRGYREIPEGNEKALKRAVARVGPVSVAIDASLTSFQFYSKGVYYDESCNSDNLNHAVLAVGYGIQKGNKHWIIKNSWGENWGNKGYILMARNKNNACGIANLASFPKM

Cathepsin S = Cathepsin S (Homo sapiens, UniProt P25774); assay: Inhibition of human recombinant cathepsin-S using Z-Val-Val-Arg-AMC as substrate preincubated for 15 mins measured after 1 hr by QFRET assay
Sequence of Cathepsin S (P25774 whole entry): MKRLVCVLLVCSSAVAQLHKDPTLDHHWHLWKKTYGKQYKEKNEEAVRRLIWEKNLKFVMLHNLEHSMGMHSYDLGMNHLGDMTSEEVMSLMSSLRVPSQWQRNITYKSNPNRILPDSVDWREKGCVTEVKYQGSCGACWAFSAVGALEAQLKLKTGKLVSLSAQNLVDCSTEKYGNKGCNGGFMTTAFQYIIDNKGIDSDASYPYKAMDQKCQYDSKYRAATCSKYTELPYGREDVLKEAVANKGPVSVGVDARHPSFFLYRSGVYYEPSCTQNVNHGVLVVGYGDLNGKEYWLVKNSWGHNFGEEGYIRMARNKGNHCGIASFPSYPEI

Cathepsin B = Cathepsin B (Homo sapiens, UniProt P07858); assay: Inhibition of human recombinant cathepsin-B using Z-Arg-Arg-AMC as substrate preincubated for 15 mins measured after 1 hr by QFRET assay
Procathepsin L = Procathepsin L (Homo sapiens, UniProt P07711); assay: Inhibition of human recombinant cathepsin-L using Z-Phe-Arg-AMC as substrate preincubated for 15 mins measured after 1 hr by QFRET assay
Sequence of Procathepsin L (P07711 whole entry): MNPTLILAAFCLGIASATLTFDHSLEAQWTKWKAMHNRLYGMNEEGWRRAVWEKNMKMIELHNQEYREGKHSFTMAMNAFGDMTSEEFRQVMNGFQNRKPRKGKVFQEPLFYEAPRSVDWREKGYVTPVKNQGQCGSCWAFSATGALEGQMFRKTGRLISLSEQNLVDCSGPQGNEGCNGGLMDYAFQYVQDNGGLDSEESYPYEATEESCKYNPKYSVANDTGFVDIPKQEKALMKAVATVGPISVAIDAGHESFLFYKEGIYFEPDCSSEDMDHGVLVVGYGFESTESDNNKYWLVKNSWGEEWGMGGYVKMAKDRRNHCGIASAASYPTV

[10] = Oral bioavailability in Beagle dog at 1 mg/kg; type: ADME, organism-based, Canis lupus familiaris; conditions: in vivo
[11] = Aqueous solubility of the compound in at pH 7.4; conditions: buffer
[12] = Volume of distribution at steady state in Beagle dog at 1 mg/kg, iv and 1 mg/kg, po; type: ADME, organism-based, Canis lupus familiaris; conditions: in vivo, read-out: Vdss
[13] = Percentage unbound in dog plasma; type: ADME, cell-free, Canis lupus familiaris
[14] = Inhibition of osteoclastogenesis in human bone marrow-derived stem cells assessed as reduction of pit formation by measuring TRACP5b activity after 7 days by bone TRAP assay; type: functional; conditions: 168 h
physchem = conditions: buffer, pH 7.4
Homo sapiens = species on record: Homo sapiens; assay: Selectivity ratio of IC50 for human recombinant cathepsin-K to IC50 for human recombinant cathepsin-B
in vivo [15] = conditions: beagle, dog, plasma, iv, 1 mg/kg
[16] = Metabolic stability of the compound in human liver microsomes assessed as compound turnover after 120 mins

Vd [1]	microsomal CLint at 2 h [2]	bioavailability [3]	fraction unbound [4]	clearance (in vivo [5])	fraction unbound [6]	pIC50 (Cathepsin K)	pIC50 (Cathepsin S)	pIC50 (Cathepsin B)	pIC50 (Procathepsin L)	bioavailability [10]	solubility [11]	logD (physchem)	Structure (SMILES)	pIC50 [14]	also measured
1.3 L/kg	35 µL/min/mg	0%	> 0.53	2.16 L/h/kg	> 0.5	–	–	–	–	–	–	–	N#CC1(NC(=O)[C@@H]2CCCC[C@H]2C(=O)N2CCN(c3ccc(F)cc3)CC2)CC1	–	bioavailability [7]: 0%; clearance [8]: 2.16 L/h/kg; Vd [9]: 1.3 L/kg
1.2 L/kg	–	46%	0.53	–	0.39	8.40	5.84	5.73	< 5.00	71%	> 2400 µM	1.9	COc1ccc(N2CCN(C(=O)[C@@H]3CCCC[C@H]3C(=O)NC3(C#N)CC3)[C@H](C)C2)cc1OC	7.40	Vd [12]: 0.8 L/kg; fraction unbound [13]: 0.39
–	< 7.4 µL/min/mg	41%	–	1.74 L/h/kg	0.45	8.05	5.64	5.51	< 5.00	79%	> 2500 µM	1.4	COc1ccc(N2CCN(C(=O)[C@@H]3CCCC[C@H]3C(=O)NC3(C#N)CC3)CC2)cc1OC	6.90	Ratio IC50 (Homo sapiens): 340; clearance (in vivo [15]): 0.72 L/h/kg; microsomal CLint at 2 h [16]: 2.3 µL/min/mg
